Assays:
FLT3-ITD = target: T1, FLT3-ITD (Homo sapiens, UniProt P36888, ITD); test: FLT3-ITD kinase inhibition; format: biochemical
T1 sequence (P36888 27-993): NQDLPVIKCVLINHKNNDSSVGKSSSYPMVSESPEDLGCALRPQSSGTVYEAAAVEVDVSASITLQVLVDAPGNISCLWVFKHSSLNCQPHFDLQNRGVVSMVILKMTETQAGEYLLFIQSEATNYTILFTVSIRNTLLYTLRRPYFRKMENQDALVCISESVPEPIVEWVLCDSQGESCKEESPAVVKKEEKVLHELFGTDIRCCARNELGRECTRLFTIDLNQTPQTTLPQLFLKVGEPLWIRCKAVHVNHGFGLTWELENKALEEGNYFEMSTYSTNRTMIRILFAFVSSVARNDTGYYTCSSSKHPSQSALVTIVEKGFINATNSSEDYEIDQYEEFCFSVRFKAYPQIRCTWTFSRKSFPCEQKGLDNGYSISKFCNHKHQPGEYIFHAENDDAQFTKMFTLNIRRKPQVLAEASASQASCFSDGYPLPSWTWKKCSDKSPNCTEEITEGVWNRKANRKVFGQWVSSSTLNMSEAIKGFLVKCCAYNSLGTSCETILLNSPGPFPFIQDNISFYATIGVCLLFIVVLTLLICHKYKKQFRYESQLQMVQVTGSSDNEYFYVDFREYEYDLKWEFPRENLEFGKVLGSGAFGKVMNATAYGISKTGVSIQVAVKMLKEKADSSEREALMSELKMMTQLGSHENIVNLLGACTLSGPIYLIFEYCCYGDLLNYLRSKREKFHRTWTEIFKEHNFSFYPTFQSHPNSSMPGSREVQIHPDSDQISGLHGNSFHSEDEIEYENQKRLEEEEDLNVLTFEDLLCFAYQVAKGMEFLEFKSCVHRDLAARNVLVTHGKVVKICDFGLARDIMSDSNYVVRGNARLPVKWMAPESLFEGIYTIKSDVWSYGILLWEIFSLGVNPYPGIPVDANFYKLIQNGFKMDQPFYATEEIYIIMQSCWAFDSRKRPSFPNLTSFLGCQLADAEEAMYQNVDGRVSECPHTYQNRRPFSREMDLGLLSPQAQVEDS

HCK = HCK (Homo sapiens, UniProt P08631); test: HCK kinase inhibition; format: biochemical
Chain of HCK (P08631 whole entry): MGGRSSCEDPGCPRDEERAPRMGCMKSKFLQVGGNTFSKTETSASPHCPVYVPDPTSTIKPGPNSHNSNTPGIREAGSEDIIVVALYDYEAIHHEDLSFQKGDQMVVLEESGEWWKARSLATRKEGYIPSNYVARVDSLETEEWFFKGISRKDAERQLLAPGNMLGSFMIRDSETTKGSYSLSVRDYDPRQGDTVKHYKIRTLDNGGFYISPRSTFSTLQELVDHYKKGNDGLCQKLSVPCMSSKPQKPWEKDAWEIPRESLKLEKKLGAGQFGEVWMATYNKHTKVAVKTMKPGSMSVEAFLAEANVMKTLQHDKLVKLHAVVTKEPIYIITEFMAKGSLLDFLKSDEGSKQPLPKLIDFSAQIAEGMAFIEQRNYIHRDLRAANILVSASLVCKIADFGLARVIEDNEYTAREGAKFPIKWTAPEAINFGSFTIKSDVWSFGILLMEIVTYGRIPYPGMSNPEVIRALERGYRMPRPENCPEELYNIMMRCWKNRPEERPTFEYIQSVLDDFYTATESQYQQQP

SMILES	IC50 (FLT3-ITD) [nM]	IC50 (HCK) [nM]
CN1CCN([C@H]2CC[C@H](n3nc(-c4ccc(NC(=O)c5cc6ccccc6n5C)cc4)c4c(N)ncnc43)CC2)CC1 [Example 28, N-(4-(4-amino-1-((trans)-4-(4-methylpiperazin-1-yl)cyclohexyl)-1H-pyrazolo[3,4-d]pyrimidin-3-yl)phenyl)-1-methyl-1H-indole-2-carboxamide]	1080	1.6
COc1cc(-c2cn([C@H]3CC[C@H](N4CCn5c(cnc5C)C4)CC3)c3ncnc(N)c23)ccc1NC(=O)c1cc2ccccc2n1C [Example 36, N-(4-(4-amino-7-((trans)-4-(3-methyl-5,6-dihydroimidazolo[1,5-a]pyrazin-7(8H)-yl)cyclohexyl)-7H-pyrrolo[2,3-d]pyrimidin-5-yl)-2-methoxyphenyl)-1-methyl-1H-indole-2-carboxamide]	409	4
Nc1ncnc2c1c(-c1ccc(Oc3ccccc3)cc1)cn2[C@H]1CC[C@@H](NCc2ccncc2)CC1 [Example 5, 5-(4-phenoxyphenyl)-7-((cis)-4-((pyridin-4-ylmethyl)amino)cyclohexyl)-7H-pyrrolo[2,3-d]pyrimidin-4-amine]	6.6	–
Nc1ncnc2c1c(-c1ccc(Oc3ccccc3)cc1)nn2[C@H]1CC[C@H](NC(=O)c2ccncc2)CC1 [Example 20, N-((trans)-4-(4-amino-3-(4-phenoxyphenyl)-1H-pyrazolo[3,4-d]pyrimidin-1-yl)cyclohexyl)isonicotinamide]	414	7.9
CCc1nnc2n1CCN([C@H]1CC[C@H](n3cc(-c4ccc(NC(=O)c5cc6ccccc6n5C)c(OC)c4)c4c(N)ncnc43)CC1)C2 [Example 32, N-(4-(4-amino-7-((trans)-4-(3-ethyl-5,6-dihydro[1,2,4]triazolo[4,3-a]pyrazin-7(8H)-yl)cyclohexyl)-7H-pyrrolo[2,3-d]pyrimidin-5-yl)-2-methoxyphenyl)-1-methyl-1H-indole-2-carboxamide]	–	14
CN1CCN([C@H]2CC[C@H](n3nc(-c4ccc(Oc5ccccc5)cc4)c4c(N)ncnc43)CC2)CC1 [Example 59, 1-((trans)-4-(4-Methylpiperazin-1-yl)cyclohexyl)-3-(4-phenoxyphenyl)-1H-pyrazolo[3,4-d]pyrimidin-4-amine]	55	3
NC(=O)CN[C@H]1CC[C@@H](n2cc(-c3ccc(Oc4ccccc4)cc3)c3c(N)ncnc32)CC1 [Example 10, 2-(((cis)-4-(4-Amino-5-(4-phenoxyphenyl)-7H-pyrrolo[2,3-d]pyrimidin-7-yl)cyclohexyl)amino)acetamide]	23	–
Nc1ncnc2c1c(-c1ccc(Oc3ccccc3)cc1)cn2[C@H]1CC[C@H](N2CCn3c(nnc3C(F)(F)F)C2)CC1 [Example 58, 5-(4-Phenoxyphenyl)-7-((trans)-4-(3-(trifluoromethyl)-5,6-dihydro[1,2,4]triazolo[4,3-a]pyrazin-7(8H)-yl)cyclohexyl)-7H-pyrrolo[2,3-d]pyrimidin-4-amine]	43	23
COc1cc(-c2cn([C@H]3CC[C@@H](N4CCn5c(nnc5C(C)C)C4)CC3)c3ncnc(N)c23)ccc1NC(=O)c1cc2ccccc2n1C [Example 33, N-(4-(4-amino-7-((cis)-4-(3-isopropyl-5,6-dihydro[1,2,4]triazolo[4,3-a]pyrazin-7(8H)-yl)cyclohexyl)-7H-pyrrolo[2,3-d]pyrimidin-5-yl)-2-methoxyphenyl)-1-methyl-1H-indole-2-carboxamide]	–	7.7
Nc1ncnc2c1c(-c1ccc(Oc3ccccc3)cc1)cn2[C@H]1CC[C@H](NC(=O)c2ccccn2)CC1 [Example 18, N-((trans)-4-(4-amino-5-(4-phenoxyphenyl)-7H-pyrrolo[2,3-d]pyrimidin-7-yl)cyclohexyl)picolinamide]	428	4.55
COc1cc(-c2cn([C@H]3CC[C@@H](N4CCN(C)CC4)CC3)c3ncnc(N)c23)ccc1NC(=O)c1cc2ccccc2n1C [Example 26, N-(4-(4-amino-7-((cis)-4-(4-methylpiperazin-1-yl)cyclohexyl)-7H-pyrrolo[2,3-d]pyrimidin-5-yl)-2-methoxyphenyl)-1-methyl-1H-indole-2-carboxamide]	1330	7.2
Nc1ncnc2c1c(-c1ccc(Oc3ccccc3)cc1)cn2[C@H]1CC[C@H](N[C@H]2CCNC2=O)CC1 [Example 54, (S)-3-(((trans)-4-(4-amino-5-(4-phenoxyphenyl)-7H-pyrrolo[2,3-d]pyrimidin-7-yl)cyclohexyl)amino)pyrrolidin-2-one]	25	–
COc1cc(-c2cn([C@H]3CC[C@H](N4CCn5c(nnc5C(F)(F)F)C4)CC3)c3ncnc(N)c23)ccc1NC(=O)c1cc2ccccc2n1C [Example 30, N-(4-(4-amino-7-((trans)-4-(3-(trifluoromethyl)-5,6-dihydro[1,2,4]triazolo[4,3-a]pyrazin-7(8H)-yl)cyclohexyl)-7H-pyrrolo[2,3-d]pyrimidin-5-yl)-2-methoxyphenyl)-1-methyl-1H-indole-2-carboxamide]	–	7.7
Nc1ncnc2c1c(-c1ccc(Oc3ccccc3)cc1)cn2[C@H]1CC[C@H](NC(=O)c2cccnc2)CC1 [Example 19, N-((trans)-4-(4-amino-5-(4-phenoxyphenyl)-7H-pyrrolo[2,3-d]pyrimidin-7-yl)cyclohexyl)nicotinamide]	108	11.9
COc1cc(-c2cn([C@H]3CC[C@H](N4CCn5c(C)cnc5C4)CC3)c3ncnc(N)c23)ccc1NC(=O)c1cc2ccccc2n1C [Example 39, N-(4-(4-amino-7-((trans)-4-(3-methyl-5,6-dihydroimidazo[1,2-a]pyrazin-7(8H)-yl)cyclohexyl)-7H-pyrrolo[2,3-d]pyrimidin-5-yl)-2-methoxyphenyl)-1-methyl-1H-indole-2-carboxamide]	4620	4
CCc1nnc2n1CCN([C@H]1CC[C@@H](n3cc(-c4ccc(NC(=O)c5cc6ccccc6n5C)c(OC)c4)c4c(N)ncnc43)CC1)C2 [Example 31, N-(4-(4-amino-7-((cis)-4-(3-ethyl-5,6-dihydro[1,2,4]triazolo[4,3-a]pyrazin-7(8H)-yl)cyclohexyl)-7H-pyrrolo[2,3-d]pyrimidin-5-yl)-2-methoxyphenyl)-1-methyl-1H-indole-2-carboxamide]	–	11
COc1cc(-c2cn([C@H]3CC[C@H](N4CCn5c(nnc5C(C)C)C4)CC3)c3ncnc(N)c23)ccc1NC(=O)c1cc2ccccc2n1C [Example 34, N-(4-(4-amino-7-((trans)-4-(3-isopropyl-5,6-dihydro[1,2,4]triazolo[4,3-a]pyrazin-7(8H)-yl)cyclohexyl)-7H-pyrrolo[2,3-d]pyrimidin-5-yl)-2-methoxyphenyl)-1-methyl-1H-indole-2-carboxamide]	–	7.7
NC(=O)CN[C@H]1CC[C@H](n2cc(-c3ccc(Oc4ccccc4)cc3)c3c(N)ncnc32)CC1 [Example 11, 2-(((trans)-4-(4-Amino-5-(4-phenoxyphenyl)-7H-pyrrolo[2,3-d]pyrimidin-7-yl)cyclohexyl)amino)acetamide]	23	–
COc1cc(-c2cn([C@H]3CC[C@@H](N4CCn5c(C)nnc5C4)CC3)c3ncnc(N)c23)ccc1NC(=O)c1cc2ccccc2n1C [Example 16, N-(4-(4-amino-7-((cis)-4-(3-methyl-5,6-dihydro[1,2,4]triazolo[4,3-a]pyrazin-7(8H)-yl)cyclohexyl)-7H-pyrrolo[2,3-d]pyrimidin-5-yl)-2-methoxyphenyl)-1-methyl-1H-indole-2-carboxamidamide]	–	4.9

Source: patent US9604988B2, “Agent for treating or inhibiting recurrence of acute myeloid leukemia” (RIKEN, priority 2012, dated 2017)
